≈ marks a conversion by molar mass, not a printed value. Structures can show the parent of a compound that is named as a salt.
Assays:
[1] = Diamod® fed state: indinavir sulfate with protein meal (Ensure® plus) or carbohydrate meal, high or low bile salts
[2] = high carbohydrate meal; ref Carver et al. (1999); cited from earlier work
[3] = water intake versus no water, cited from earlier work
[4] = ref Bevernage et al., 2012; cited from earlier work
[5] = Diamod® fasted state: 20 mL Sporanox® solution without or with 240 mL water (stomach, duodenum, permeate); assay type: in vitro ADME
Method: The stomach vessel accepts gastric secretions (Flow rate F1) and is continuously emptied (Flow rate F2) into the second reactor vessel which simulates the lumen of the duodenum and the blood stream that accepts the permeated fraction. […] The geometry of the inner donor compartment is designed to contain biorelevant duodenal volumes (30 mL), to generate a permeation surface area of 65 cm^2 and to result in a permeation surface area to donor volume ratio of 2 cm^−1.

[6] = fed, carbohydrate meal, high bile salts

Which results are given for `CC(C)(C)NC(=O)[C@@H]1CN(Cc2cccnc2)CCN1C[C@@H](O)C[C@@H](Cc1ccccc1)C(=O)N[C@H]1c2ccccc2C[C@H]1O` [indinavir sulfate]?
decrease in average duodenal solute concentration AUC0–240min ([1]; fed high protein meal versus fasted): 34.2%; increase of Tmax [2]: approximately 3 h

With `CC(C)(C)NC(=O)[C@@H]1CN(Cc2cccnc2)CCN1C[C@@H](O)C[C@@H](Cc1ccccc1)C(=O)N[C@H]1c2ccccc2C[C@H]1O` [indinavir] as the molecule, how does the “Cmax total in the duodenum” value [1, 6] read?
The value was 504.3 ± 3.1 µM.

What about the “Cmax total in the stomach” value [1, 6] of the same molecule?
Its value is 1225.5 ± 19.9 µM.

And the “supersaturation state in the duodenum” value [1, 6]?
The value was “supersaturated throughout the transit through the duodenum”.

And the “supersaturation state in the duodenum” value ([1]; fed, carbohydrate meal, low bile salts)?
Its value is “supersaturating throughout the transit through the duodenum”.

And the “Cmax total in the duodenum” value ([1]; fed, high protein meal)?
Its value is 514.8 ± 16.5 µM.

What about the “Cmax total in the stomach” value ([1]; fed, high protein meal (Ensure® Plus)) of the same molecule?
The value was 1386.0 ± 120.11 µM.

And the duodenal solute concentrations ([1]; fed, high protein meal, after bile salts decreased towards fasted levels)?
The duodenal solute concentrations was “around 100 μM”.

And the “supersaturation state in the duodenum” value ([1]; fed, high protein meal, period of high bile salts)?
The value was “not in a state of supersaturation”.

With `CC(O)COC[C@H]1O[C@@H]2O[C@H]3[C@H](O)[C@@H](O)[C@@H](O[C@H]4[C@H](O)[C@@H](O)[C@@H](O[C@H]5[C@H](O)[C@@H](O)[C@@H](O[C@H]6[C@H](O)[C@@H](O)[C@@H](O[C@H]7[C@H](O)[C@@H](O)[C@@H](O[C@H]8[C@H](O)[C@@H](O)[C@@H](O[C@H]1[C@H](O)[C@H]2O)O[C@@H]8COCC(C)O)O[C@@H]7COCC(C)O)O[C@@H]6COCC(C)O)O[C@@H]5COCC(C)O)O[C@@H]4COCC(C)O)O[C@@H]3COCC(C)O` (stereo partly drawn) [2-HP-β-CD, 2-hydroxypropyl-β-cyclodextrin] as the molecule, how does the “fold decrease in duodenal AUC0-3h” value ([3]; in vivo duodenal aspirates, ref Berben et al. (2018c)) read?
Its value is 2.3 fold.

What does the source list for `CCC(C)n1ncn(-c2ccc(N3CCN(c4ccc(OCC5COC(Cn6cncn6)(c6ccc(Cl)cc6Cl)O5)cc4)CC3)cc2)c1=O` (stereo not drawn) [itraconazole]?
solubility in FaSSGF [4]: 2.7 µM (≈ 1.91 µg/mL); additional precipitation in the duodenum upon water intake ([5]; difference of solute and total AUC reduction): 24.0%; dissolution state during transit through the stomach ([5]; independently of water intake): completely dissolved; decrease in AUC0-180min of permeated drug ([5]; water intake versus no water): 3.2%; decrease in stomach solute AUC0-180min ([5]; water intake versus no water): 47%; decrease in stomach total AUC0-180min ([5]; water intake versus no water): 45%; decrease of duodenal AUC0-180min of solute concentration ([5]; water intake versus no water): 56.1%; fold decrease of stomach AUC0-180min of solute itraconazole ([5]; water intake versus no water): 1.9 fold; reduction of duodenal AUC0-180min of total concentration ([5]; water intake versus no water): 32.1%; reduction (times) in average dissolved gastric AUC0-3h ([3]; in vivo, ref Berben et al., 2017): 1.8 times
